US20160008339A1, “PSORALEN DERIVATIVES FOR PREVENTING OR TREATING HEART FAILURE OR CARDIAC HYPERTROPHY” (MAX-DELBRUCK-CENTRUM FUR MOLEKULARE MEDIZIN, priority 2012, published 2016)

Tested on: primary neonatal rat cardiomyocytes
Assay: Beat rate of neonatal cardiomyocytes counted by light microscope
Assay type: cell-based
Conditions: for beat rate after PE stimulation: PE 6 h
Protocol: For cultivation of primary neonatal rat cardiomyocytes, hearts of two to three days old rats were obtained and quickly stored on ice in ADS buffer (116.4 mM NaCl, 5.4 mM KC, 5.6 mM dextrose, 10.9 mM NaH2PO4, 405.7 μmol/L MgSO4, 20 mM Hepes, pH 7.3). Under sterile conditions, the hearts were cleaned from blood and vessels, cut into small pieces and transferred into falcon tubes. The ADS buffer was exchanged against an enzyme solution (see table below). Within four cycles each with five ml enzyme solution and an enzyme mix comprising collagenase and pancreatin, isolated cells were released from the tissue (12 min at 37° C. in a water bath with approx. 220 rpm).
The supernatant with the isolated cells was collected, transferred in fetal calf serum (FCS, 2.5 ml on ice) and subsequently centrifugated in FCS (100 g for 3 min at 4° C.). The supernatant of the centrifugation was discarded and the pellet was resuspended in 5 ml cold plating medium. After an additional centrifugation, the pellet was resuspended in 15 ml medium, transferred into a dish and incubated for two hours at 37° C. to allow the settling of the fibroblasts. The cardiomyocytes in the supernatant were counted with a Scepter Handheld Automated Cell Counter and transferred in dishes coated with gelatine. On the following day the medium was changed.
The neonatal cardiomyocytes were seeded in 6-well plates with 1.5×10^6 cell per well. The stimulation with 100 μmol/L phenylephrine (PE) was performed for six or twenty four hours at 37° C. Untreated cells served as control. The effect of compound 31413 on the α-adrenergic stimulation of the cardiomyocytes was determined after incubation with the compound for three hours. To do this, the contraction of the cells was counted within a minute and different conditions were compared.
Isolated neonatal cardiomyocytes were used to investigate the relation between AKAP-Lbc induced RhoA activation and the contractility of the heart. After a chronic stimulation of the α1-adreno receptors (AR) with the specific agonist PE for six hours, the beats of the cardiomyocytes were counted over a period of 15 s and a beat rate per minute (bpm) was calculated. An increase of the beat rate of the cardiomyocytes from 100 bpm to 160 beats per minute could be observed. […] The beat rate of neonatal cardiomyocytes was counted with help of a light microscope.

For `COc1ccc(-c2coc3cc4oc(=O)c(C)c(C)c4cc23)cc1` [Compound 31413, 3-(4-methoxyphenyl)-5,6-dimethyl-furo[3,2-g]chromen-7-one], the “beat rate after PE stimulation” value (2.5 μmol/L compound) was “normalization of the beat rate”, the “beat rate after PE stimulation” value (25 μmol/L compound) was “arrest” and the “beat rate after PE stimulation” value (50 μmol/L compound) was “arrest”. The “phenylephrine/alpha-adrenoceptor-induced increase in cardiac myocyte beating frequency” value (at 2.5, 10, 25 and 50 μmol/L) was “prevents”.
